Drawing on patent publication US12187704B2, “Triazine derivatives and methods of use thereof” (Ascletis BioScience Co., Ltd., priority 2022, dated 2025), this text covers EC50 and AUC(0-t) for 6 molecules.

Where two headings read alike, the source gives them in different places.

A word on the EC50: it is the concentration needed to bring the measured effect to its halfway point.

The subject of data set [1] is hCoV-19/USA/Chicago IL/2022 (BA.5.2). The data set can be described thus: In vitro antiviral activity against SARS-COV-2 BA.5.2 in Calu-3 cells. The class given is cell-based. As to conditions: Severe acute respiratory syndrome coronavirus 2, Calu-3, 48 h.
In data set [2] the test system is SARS-COV-2 Omicron hCoV-19/USA/MD HP20874/2021 (B.1.1.529) strain. The data set can be described thus: In vitro antiviral activity against SARS-COV-2 Omicron B.1.1.529 in Calu-3 cells. It counts as cell-based. The following applies: Severe acute respiratory syndrome coronavirus 2, Calu-3, 48 h.
Data set [3] is described as follows: in vivo. The following applies: rat. The procedure: Oral administration: The compound was administered with a volume ratio of Solutol:PEG400:Tween80:Saline=10:40:2:48 […] at a dose of 10 mg/kg. At 0.25 h, 0.5 h, 1 h, 2 h, 4 h, 8 h, 10 h, 12 h and 24 h after drug administration, blood was serially collected from the fundus venous plexus in EP tubes containing EDTA, centrifuged at 8000 rpm/min for 5 min and then the upper layer of plasma was frozen at −80° C. and stored for LC-MS/MS analysis.
Intravenous administration: the compound was administered with a volume ratio of 10% DMSO/30% PEG400/60% water (v/v/v) at a dose of 1 mg/kg). At 0.0833 h, 0.25 h, 0.5 h, 1 h, 2 h, 4 h, 8 h, 12 h and 24 h after drug administration, blood was serially collected from the fundic venous plexus in EP tubes containing EDTA, centrifuged at 8000 rpm/min for 5 min and then the upper layer of plasma was frozen at −80° C. and stored for LC-MS/MS analysis.
(§1) The pharmacokinetic parameters were calculated from the blood concentration-time data obtained from the tests using WinNonlin software.

Data set [4] in a line: in vivo. The following applies: monkey, crab-eating monkeys, plasma. As to the method:
Oral administration: The compounds were administered with a volume ratio of Solutol:PEG400:Tween80:Saline=10:40:2:48 (v/v/v/v) at a dose of 2 mg/kg. At 0.25 h, 0.5 h, 1 h, 2 h, 4 h, 8 h, 10 h, 12 h and 24 h after drug administration, blood was serially collected from the fundus venous plexus in EP tubes containing EDTA, centrifuged at 8000 rpm/min for 5 min and then the upper layer of plasma was frozen at −80° C. and stored for LC-MS/MS analysis.
Intravenous administration: the compound was administered with 10% DMSO/30% PEG400/60% water (v/v/v) at a dose of 1 mg/kg). At 0.0833 h, 0.25 h, 0.5 h, 1 h, 2 h, 4 h, 8 h, 12 h and 24 h after drug administration, blood was serially collected from the fundic venous plexus in EP tubes containing EDTA, centrifuged at 8000 rpm/min for 5 min and then the upper layer of plasma was frozen at −80° C. and stored for LC-MS/MS analysis.
as §1

Setting [5] is: intravenous, 1 mg/kg, read-out: Intravenous injection AUClast.
Where [6] appears, read: oral, 2 mg/kg, read-out: Oral AUClast.

Turning to `Cn1cc2cc(Nc3nc(=O)n(-c4cncnc4)c(=O)n3Cc3cc(F)c(F)cc3F)c(Cl)cc2n1` [Compound 1, 6-((6-chloro-2-methyl-2H-indazol-5-yl)amino)-3-(pyrimidin-5-yl)-1-(2,4,5-trifluorobenzyl)-1,3,5-triazine-2,4(1H,3H)-dione], the values for the EC50 in data set [1] and in data set [2] were 0.323 µM and 0.195 µM, respectively.

`Cn1cc2cc(Nc3nc(=O)n(-c4cc(F)cnc4Cl)c(=O)n3Cc3cc(F)c(F)cc3F)c(Cl)cc2n1` [Compound 2]: the EC50 was found to be 0.156 µM in data set [1] and 0.098 µM in data set [2].

As to `Cn1cc2cc(Nc3nc(=O)n(-c4cc(Cl)cnc4Cl)c(=O)n3Cc3cc(F)c(F)cc3F)c(Cl)cc2n1` [Compound 3], the half-maximal effective concentration (EC50) in data set [1] turned out to be 0.149 µM; in data set [2] it was 0.084 µM.

Consider `O=c1nc(Nc2cc3cn(CCO)nc3cc2Cl)n(Cc2cc(F)c(F)cc2F)c(=O)n1-c1cncc(Cl)c1` [Compound 4], for which the figures for the EC50 in data set [1] and in data set [2] were 0.018 µM and 0.013 µM, respectively. Also, the AUC(0-t) in the data set “in vivo [3]” (iv, 1 mg/kg) worked out at 2.04 µg·h/mL; in “in vivo [3]” (po, 10 mg/kg), 10.8 µg·h/mL; in the data set “in vivo [4]” (setting [5]) it was 10.3 µg·h/mL; in “in vivo [4]” (setting [6]) it was 15.2 µg·h/mL.

For the molecule `[2H]C([2H])([2H])n1cc2cc(Nc3nc(=O)n(-c4cncc(Cl)c4)c(=O)n3Cc3cc(F)c(F)cc3F)c(Cl)cc2n1` [Compound 5], the EC50 amounted to 0.015 µM in data set [1] and 0.009 µM in data set [2]. Besides, the AUC(0-t) came to 19 µg·h/mL in the data set “in vivo [3]” (iv, 1 mg/kg); 224 µg·h/mL in the data set “in vivo [3]” (po, 10 mg/kg); 38.4 µg·h/mL in “in vivo [4]” (setting [5]); 60.7 µg·h/mL in “in vivo [4]” (setting [6]).

For the molecule `[2H]C([2H])([2H])n1cc2cc(Nc3nc(=O)n(-c4cncc(Cl)c4)c(=O)n3Cc3cc(F)c(F)cc3F)c(Br)cc2n1` [Compound 6], the EC50 in data set [1] turned out to be 0.02 µM; in data set [2], 0.01 µM. Also, the AUC(0-t) in “in vivo [3]” (iv, 1 mg/kg) was 19.5 µg·h/mL; in the data set “in vivo [3]” (po, 10 mg/kg), 205 µg·h/mL; in the data set “in vivo [4]” (setting [5]) it was 35.7 µg·h/mL; in the data set “in vivo [4]” (setting [6]), 59 µg·h/mL.
